By IC50 is commonly meant the concentration that gives 50% inhibition. Low readings indicate higher potency, high ones lower potency.

One experiment deals with JAK2 protein kinase (Homo sapiens, UniProt O60674). The experiment can be described thus: biochemical. To be noted: 12 uM ATP, 60 min.
The next experiment addresses JAK1 protein kinase (Homo sapiens, UniProt P23458). The experiment can be described thus: biochemical. To be noted: 38 uM ATP, 90 min. How it is done: In Vitro Activity Test of Jak1, Jak 2 and Jak 3 Kinase
Recombinant humanized JAK1, JAK2 and JAK3 […] were all purchased from Life technology. LANCE Ultra ULight™-JAK-1(Tyr1023) peptide and LANCE Eu-W1024 Anti-phosphotyrosine (PT66) were both purchased from PerkinElmer. Envision (PerkinElmer) was used to read a plate.
Three dilution of a test compound was prepared, and 11 final concentrations were obtained: 10 uM to 0.17 nM. Each concentration had two repeat wells. The content of DMSO in a detection reaction was 1%.
2 nM JAK1 protein kinase, 50 nM LANCE Ultra ULight™-JAK-1(Tyr1023) peptide, 38 uM ATP, 50 mM HEPES (pH7.5), 10 mM MgCl2, 1 mM EGTA, 2 mM DTT, and 0.01% BRIJ-35. Detection plate was White Proxiplate 384-Plus plate (PerkinElmer), the reaction was conducted for 90 min at room temperature, and reaction system was 10 ul.
10 ul detection reagent was added into the reaction plate, wherein the final concentration of LANCE Eu-W1024 Anti-phosphotyrosine (PT66) was 2 nM, the final concentration of EDTA was 10 mM, incubation was conducted for 60 min at room temperature, and the plate was read by the Envision.
The reading was converted into a suppression ratio as follow equation: (%)=([…])/(Max−Min)*100%. IC50 data was detected by 4 parametric curve fitting (Model 205 in XLFIT5, iDBS), see Table 1.

For another experiment, the target named is T1, JAK3 (Homo sapiens, UniProt P52333).
T1 construct: purchased Life technology
T1 sequence (P52333 1-1124): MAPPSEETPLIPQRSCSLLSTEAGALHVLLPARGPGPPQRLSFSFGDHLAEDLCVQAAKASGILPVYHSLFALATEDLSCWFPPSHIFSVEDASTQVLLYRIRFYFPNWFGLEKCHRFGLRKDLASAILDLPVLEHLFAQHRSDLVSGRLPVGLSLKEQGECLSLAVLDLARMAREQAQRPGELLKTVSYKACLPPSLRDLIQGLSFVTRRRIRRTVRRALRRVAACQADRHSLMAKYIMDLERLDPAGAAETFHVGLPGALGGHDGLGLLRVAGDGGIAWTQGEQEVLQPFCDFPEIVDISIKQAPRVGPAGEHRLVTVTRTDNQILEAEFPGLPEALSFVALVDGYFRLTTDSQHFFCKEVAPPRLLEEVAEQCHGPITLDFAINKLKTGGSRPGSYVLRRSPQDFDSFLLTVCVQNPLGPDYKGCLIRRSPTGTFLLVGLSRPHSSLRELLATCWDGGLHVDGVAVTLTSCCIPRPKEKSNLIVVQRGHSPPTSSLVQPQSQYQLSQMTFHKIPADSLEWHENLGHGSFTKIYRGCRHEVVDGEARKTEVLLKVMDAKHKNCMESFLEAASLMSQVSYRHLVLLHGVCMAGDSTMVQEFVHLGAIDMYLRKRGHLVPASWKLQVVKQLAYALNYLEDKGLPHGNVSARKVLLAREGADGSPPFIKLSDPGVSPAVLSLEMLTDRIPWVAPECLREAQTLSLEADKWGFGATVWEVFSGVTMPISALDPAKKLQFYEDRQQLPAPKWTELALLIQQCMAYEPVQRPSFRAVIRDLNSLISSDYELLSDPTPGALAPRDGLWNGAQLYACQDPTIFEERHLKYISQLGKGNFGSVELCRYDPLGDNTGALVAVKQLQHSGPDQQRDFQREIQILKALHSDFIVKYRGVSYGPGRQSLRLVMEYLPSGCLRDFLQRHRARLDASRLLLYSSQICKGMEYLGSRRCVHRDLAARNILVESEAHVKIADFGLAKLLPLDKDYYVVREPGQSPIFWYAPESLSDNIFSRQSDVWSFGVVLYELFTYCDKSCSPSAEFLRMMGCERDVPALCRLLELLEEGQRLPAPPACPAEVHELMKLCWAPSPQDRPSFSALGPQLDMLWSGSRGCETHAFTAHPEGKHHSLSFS
The experiment in a line: In vitro activity test of JAK3 kinase (LANCE Ultra TR-FRET).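 Also: recombinant human JAK3 phosphorylating ULight-JAK-1(Tyr1023) peptide at 4 µM ATP, with 1% DMSO, detected by Eu-anti-phosphotyrosine TR-FRET on Envision and converted to percent inhibition.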 The class given is biochemical. In general terms: In TR-FRET formats the signal depends on donor and acceptor labels being close together.

Structures are written as SMILES. A value given as a limit tells only on which side of the number the result lay.

Sequence of JAK2 protein kinase (O60674 whole entry): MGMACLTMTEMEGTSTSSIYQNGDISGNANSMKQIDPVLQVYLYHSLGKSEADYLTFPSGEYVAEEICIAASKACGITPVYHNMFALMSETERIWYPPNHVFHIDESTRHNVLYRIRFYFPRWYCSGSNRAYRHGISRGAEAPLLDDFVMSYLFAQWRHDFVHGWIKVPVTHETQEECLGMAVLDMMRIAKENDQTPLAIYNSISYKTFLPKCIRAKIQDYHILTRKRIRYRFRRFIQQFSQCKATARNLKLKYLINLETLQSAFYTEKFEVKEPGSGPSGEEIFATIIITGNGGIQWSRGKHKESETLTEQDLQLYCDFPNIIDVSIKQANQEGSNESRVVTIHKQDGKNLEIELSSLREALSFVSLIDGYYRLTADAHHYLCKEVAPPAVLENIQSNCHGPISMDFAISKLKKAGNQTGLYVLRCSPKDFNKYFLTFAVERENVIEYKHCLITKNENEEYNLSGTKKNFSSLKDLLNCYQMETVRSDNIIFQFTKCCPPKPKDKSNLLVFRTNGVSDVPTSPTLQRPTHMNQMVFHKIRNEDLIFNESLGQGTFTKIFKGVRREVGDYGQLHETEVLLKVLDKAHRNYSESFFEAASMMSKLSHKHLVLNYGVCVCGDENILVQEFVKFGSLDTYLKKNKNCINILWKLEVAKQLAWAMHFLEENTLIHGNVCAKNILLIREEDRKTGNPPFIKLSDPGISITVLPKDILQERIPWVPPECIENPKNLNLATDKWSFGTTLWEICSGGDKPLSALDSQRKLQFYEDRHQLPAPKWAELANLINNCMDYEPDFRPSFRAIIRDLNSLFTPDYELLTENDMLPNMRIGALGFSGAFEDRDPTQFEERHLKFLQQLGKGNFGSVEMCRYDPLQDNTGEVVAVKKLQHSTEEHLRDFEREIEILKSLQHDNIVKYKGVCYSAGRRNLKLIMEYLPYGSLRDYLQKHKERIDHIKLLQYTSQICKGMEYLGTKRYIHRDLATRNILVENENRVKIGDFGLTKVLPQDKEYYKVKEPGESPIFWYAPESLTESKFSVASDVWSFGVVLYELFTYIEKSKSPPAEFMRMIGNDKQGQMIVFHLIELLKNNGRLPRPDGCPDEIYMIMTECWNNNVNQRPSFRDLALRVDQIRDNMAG
Sequence of JAK1 protein kinase (P23458 whole entry): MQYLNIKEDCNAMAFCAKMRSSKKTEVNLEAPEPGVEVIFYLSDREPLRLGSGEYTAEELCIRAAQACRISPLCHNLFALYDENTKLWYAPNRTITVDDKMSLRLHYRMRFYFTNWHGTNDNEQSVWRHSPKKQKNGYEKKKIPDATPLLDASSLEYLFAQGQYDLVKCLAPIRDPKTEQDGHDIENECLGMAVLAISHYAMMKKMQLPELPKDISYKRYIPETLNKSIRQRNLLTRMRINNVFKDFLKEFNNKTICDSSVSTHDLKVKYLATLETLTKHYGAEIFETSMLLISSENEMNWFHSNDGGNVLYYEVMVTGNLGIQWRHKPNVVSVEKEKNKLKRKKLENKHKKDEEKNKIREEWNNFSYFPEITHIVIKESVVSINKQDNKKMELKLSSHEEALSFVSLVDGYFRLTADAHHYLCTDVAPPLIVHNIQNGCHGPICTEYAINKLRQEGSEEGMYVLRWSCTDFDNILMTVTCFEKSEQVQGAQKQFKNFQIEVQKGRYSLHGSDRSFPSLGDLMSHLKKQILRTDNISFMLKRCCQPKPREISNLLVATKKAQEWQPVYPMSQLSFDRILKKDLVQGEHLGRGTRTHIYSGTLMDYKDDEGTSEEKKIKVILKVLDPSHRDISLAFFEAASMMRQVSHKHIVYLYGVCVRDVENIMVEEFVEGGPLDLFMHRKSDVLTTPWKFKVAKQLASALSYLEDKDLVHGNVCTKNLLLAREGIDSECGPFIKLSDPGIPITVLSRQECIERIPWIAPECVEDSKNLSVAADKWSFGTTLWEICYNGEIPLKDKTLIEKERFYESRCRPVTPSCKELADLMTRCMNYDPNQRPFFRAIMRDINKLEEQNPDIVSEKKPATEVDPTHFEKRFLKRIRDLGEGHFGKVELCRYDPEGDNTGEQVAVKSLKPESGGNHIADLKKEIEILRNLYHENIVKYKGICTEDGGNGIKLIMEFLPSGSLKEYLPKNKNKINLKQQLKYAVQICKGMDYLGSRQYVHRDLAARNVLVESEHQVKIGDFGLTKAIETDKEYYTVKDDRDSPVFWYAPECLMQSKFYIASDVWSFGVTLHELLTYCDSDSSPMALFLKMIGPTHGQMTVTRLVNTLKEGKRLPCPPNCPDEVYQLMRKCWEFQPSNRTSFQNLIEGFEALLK
Text for JAK2 protein kinase: (§1) Recombinant humanized JAK1, JAK2 and JAK3 protease were all purchased from Life technology. LANCE Ultra ULight™-JAK-1(Tyr1023) peptide and LANCE Eu-W1024 Anti-phosphotyrosine (PT66) were both purchased from PerkinElmer. Envision (PerkinElmer) was used to read a plate.
(§2) The reading was converted into a suppression ratio as follow equation: (%)=(Min−Ratio)/(Max−Min)*100%.
Experimental for JAK3: as §1
0.05 nM protein kinase, 50 nM LANCE Ultra ULight™-JAK-1(Tyr1023) peptide, 4 uM ATP, 50 mM HEPES (pH7.5), 10 mM MgCl2, 1 mM EGTA, 2 mM DTT, and 0.01% BRIJ-35.
as §2

Consider `CN(c1ncnc2[nH]ccc12)N1CCC[C@H](C(=O)NCC#N)C1` (single isomer, unassigned) [WX09, (S or R)—N-(cyanomethyl-1-[methyl(7H-pyrrolo[2,3-d]pyrimidin-4-yl)amino]piperidyl)-3-formamide], for which the IC50 against JAK2 protein kinase was above 1000 nM; on JAK1 protein kinase, 100 to 1000 nM; on JAK3, above 1000 nM.
As for `CN(c1ncnc2[nH]ccc12)N1CCC(C(=O)NCC(F)(F)F)C1` (single isomer, unassigned) [WX32, (R or S)-1-[methyl(7H-pyrrolo[2,3-d]pyrimidin-4-yl)amino]-N-(2,2,2-trifluoroethyl) pyrrolidyl-3-formamide], the IC50 against JAK2 protein kinase was below 10 nM; against JAK1 protein kinase it was below 10 nM; on JAK3, 10 to 100 nM.
As for `CN(c1ncnc2[nH]ccc12)N1CCC(C(=O)NCC(F)(F)F)C1` (single isomer, unassigned) [WX33, (S or R)-1-[methyl(7H-pyrrolo[2,3-d]pyrimidin-4-yl)amino]-N-(2,2,2-trifluoroethyl)pyrrolidyl-3-formamide], the concentration for half-maximal inhibition (IC50) fell in the range of 100 to 1000 nM on JAK2 protein kinase and 10 to 100 nM against JAK1 protein kinase.
As to `CN(c1ncnc2[nH]ccc12)N1CCC[C@@H](C(=O)NCC(F)F)C1` (single isomer, unassigned) [WX49, (3R or 3S)-1-[methyl(7H-pyrrole[2,3-d]pyrimidine-4-)amino]-N-(2,2-difluoroethyl)piperidyl-3-formamide], the IC50 against JAK2 protein kinase, on JAK1 protein kinase and against JAK3 was below 10 nM in each case.
As for `CN(c1ncnc2[nH]ccc12)N1CCC[C@H](C(=O)NCC(F)F)C1` (single isomer, unassigned) [WX50, (3S or 3R)-1-[methyl(7H-pyrrole[2,3-d]pyrimidine-4-)amino]-N-(2,2-difluoroethyl)piperidyl-3-formamide], the IC50 was above 1000 nM at JAK2 protein kinase, 100 to 1000 nM against JAK1 protein kinase and 100 to 1000 nM at JAK3.
As to `CN(c1ncnc2[nH]ccc12)N1CCC[C@@H](C(=O)NCC(F)(F)C(F)(F)F)C1` (single isomer, unassigned) [WX51, (3R or 3S)-1-[methyl(7H-pyrrole[2,3-d]pyrimidine-4-)amino]-N-(2,2,3,3,3-pentafluoropropyl)piperidyl-3-formamide], the 50% inhibitory concentration (IC50) on JAK2 protein kinase, against JAK1 protein kinase and on JAK3 was above 1000 nM each time.
`CN(c1ncnc2[nH]ccc12)N1CCC[C@H](C(=O)NCC(F)(F)C(F)(F)F)C1` (single isomer, unassigned) [WX52, (3S or 3R)-1-[methyl(7H-pyrrole[2,3-d]pyrimidine-4-)amino]-N-(2,2,3,3,3-pentafluoropropyl)piperidyl-3-formamide]: the figures for the IC50 at JAK2 protein kinase, at JAK1 protein kinase and against JAK3 were 10 to 100 nM, below 10 nM and 10 to 100 nM, respectively.
`O=C(NCC(F)(F)F)C1CCCN(Nc2ncnc3[nH]ccc23)C1` (stereo not shown) [WX01, 1-((7H-pyrrolo[2,3-d]pyrimidin-4-yl)amino)-N-(2,2,2-trifluoroethyl)piperidyl-3-formamide]: the IC50 at JAK2 protein kinase was 10 to 100 nM; at JAK1 protein kinase, below 10 nM; against JAK3, 10 to 100 nM.
Consider `CN(CC(F)(F)F)C(=O)C1CCCN(N(C)c2ncnc3[nH]ccc23)C1` (stereo not shown) [WX02, N-methyl-1-(methyl(7H-pyrrolo[2,3-d]pyrimidin-4-yl)amino)-(2,2,2-trifluoroethyl)piperidyl-3-formamide], for which the figures for the IC50 on JAK2 protein kinase, on JAK1 protein kinase and against JAK3 were 100 to 1000 nM, 10 to 100 nM and 10 to 100 nM, respectively.
For the compound `N#CCNC(=O)C1CCCN(Nc2ncnc3[nH]ccc23)C1` (stereo not shown) [WX03, N-(cyanomethyl)-1-(7H-pyrrolo[2,3-d]pyrimidin-4-yl-amino)piperidyl-3-formamide], the figures for the 50% inhibitory concentration (IC50) against JAK2 protein kinase, against JAK1 protein kinase and on JAK3 were 10 to 100 nM, below 10 nM and 10 to 100 nM, respectively.
For `CCOC(=O)C1CCCN(N(C)c2ncnc3[nH]ccc23)C1` (stereo not shown) [WX10, Ethyl 1-[methyl(7H-pyrrolo[2,3-d]pyrimidin-4-yl)amino]piperidyl-3-carboxylate], the IC50 against JAK2 protein kinase lay within 100 to 1000 nM; against JAK1 protein kinase, 10 to 100 nM; at JAK3 it was 10 to 100 nM.
For the compound `CN(c1ncnc2[nH]ccc12)N1CCCC(C(N)=O)C1` (stereo not shown) [WX11], the half-maximal inhibitory concentration (IC50) on JAK2 protein kinase, at JAK1 protein kinase and on JAK3 was 100 to 1000 nM each time.
Regarding `CN(c1ncnc2[nH]ccc12)N1CCCC(NC(=O)CC#N)C1` (stereo not shown) [WX12], the IC50 against JAK2 protein kinase is above 1000 nM; against JAK1 protein kinase it was 100 to 1000 nM; on JAK3, 100 to 1000 nM.
Regarding `CN(c1ncnc2[nH]ccc12)N1CCCC(NC(=O)CC(F)(F)F)C1` (stereo not shown) [WX13, 3,3,3-trifluoroethyl-N-(1-(methyl(7H-pyrrolo[2,3-d]pyrimidin-4-yl)amino)piperidyl-3-)propylcarboxamide], the results for the IC50 against JAK2 protein kinase, at JAK1 protein kinase and against JAK3 were above 1000 nM, 100 to 1000 nM and 100 to 1000 nM, respectively.
Take `CN(c1ccnc2[nH]ccc12)N1CCCC(C(=O)NCC(F)(F)F)C1` (stereo not shown) [WX15, N-(2,2,2-trifluoroethyl)-1-(methyl(1H-pyrrole[2,3-d]pyridin-4-yl)amino)piperidyl-3-formamide]: the IC50 on JAK2 protein kinase was 100 to 1000 nM; at JAK1 protein kinase, 10 to 100 nM; against JAK3, 100 to 1000 nM.
As for `CN(c1ncnc2[nH]ccc12)N1CCCC(C(=O)NCCC#N)C1` (stereo not shown) [WX16, N-(cyanoethyl)-1-(methyl(1H-pyrrole[2,3-d]pyridyl-4-)amino)piperidyl-3-formamide], the IC50 against JAK1 protein kinase lay within 10 to 100 nM; against JAK3 it was 100 to 1000 nM.
For `CN(c1ncnc2[nH]ccc12)N1CCCC(CC(=O)NCC(F)(F)F)C1` (stereo not shown) [WX17], the IC50 on JAK2 protein kinase is above 1000 nM; at JAK1 protein kinase, 100 to 1000 nM; at JAK3, 100 to 1000 nM.
`CN(c1ncnc2[nH]ccc12)N1CCCC(CC(=O)NCC#N)C1` (stereo not shown) [WX18]: the IC50 was above 1000 nM against JAK2 protein kinase, 100 to 1000 nM on JAK1 protein kinase and 100 to 1000 nM against JAK3.
In the case of `CN(c1ncnc2[nH]ccc12)N1CCCC(CNC(=O)CC(F)(F)F)C1` (stereo not shown) [WX19, 3,3,3-trifluoro-N-((1-(methyl(7H-pyrrole[2,3-d]pyrimidine-4-)amino)piperidyl-3-)methyl)propionamide], the IC50 at JAK2 protein kinase was above 1000 nM; against JAK1 protein kinase, 100 to 1000 nM; at JAK3 it was 100 to 1000 nM.
On to `CN(c1ncnc2[nH]ccc12)N1CCC(C(=O)NCC#N)CC1` [WX20, N-(cyanomethyl)-1-(methyl(7H-pyrrolo[2,3-d]pyrimidin-4-yl)amino)piperidyl-4-formamide], for which the figures for the IC50 against JAK2 protein kinase, at JAK1 protein kinase and against JAK3 were 100 to 1000 nM, 10 to 100 nM and 10 to 100 nM, respectively.
For the compound `N#CCNC(=O)C1CCN(Nc2ncnc3[nH]ccc23)CC1` [WX21], the figures for the IC50 at JAK2 protein kinase, against JAK1 protein kinase and against JAK3 were above 1000 nM, 10 to 100 nM and 100 to 1000 nM, respectively.
`O=C(NCC(F)(F)F)C1CCN(Nc2ncnc3[nH]ccc23)CC1` [WX22]: the figures for the IC50 against JAK2 protein kinase, at JAK1 protein kinase and against JAK3 were above 1000 nM, 100 to 1000 nM and 100 to 1000 nM, respectively.
Turning to `CN(c1ncnc2[nH]ccc12)N1CCC(C(=O)NCC(F)(F)F)CC1` [WX23], the IC50 against JAK2 protein kinase was 100 to 1000 nM; on JAK1 protein kinase, 10 to 100 nM; on JAK3, 10 to 100 nM.
As for `CN(c1ncnc2[nH]ccc12)N1CCC(NC(=O)CC(F)(F)F)CC1` [WX24], the IC50 was in the range of 100 to 1000 nM against JAK2 protein kinase, 10 to 100 nM against JAK1 protein kinase and 100 to 1000 nM at JAK3.

The record behind these values is patent US10617690B2 (priority 2015, dated 2020).
